Earlier results on 1 molecule are cited in patent EP0054589B1, “Organic phosphoric acid ester derivatives, a process for preparing the same and insecticidal, miticidal or nematocidal compositions containing the same” (priority 1980, dated 1982).

SMILES strings stand for the structures.

Some test systems named below: apple leaf miner; tobacco cutworm; smaller tea tortrix; rice stem borer; diamond back moth.
Holding throughout (settings): U.S. Patent No. 3,969,438; cited from earlier work

On to `CCCSP(=O)(OCC)Oc1ccc2c(C)cc(=O)oc2c1` (centres unmarked), for which the “pesticidal effect on apple leaf miner” value with apple leaf miner is recorded as “less effective”. Besides, the “pesticidal effect on tobacco cutworm” value with tobacco cutworm is “to some extent”. Further, the “pesticidal effect on smaller tea tortrix” value in the data set on smaller tea tortrix is listed as “to some extent”. For the same molecule, in the data set on rice stem borer, the “pesticidal effect on rice stem borer” value was “to some extent”. Also, the “pesticidal effect on diamond back moth” value in the data set on diamond back moth is given as “to some extent”.
